Source: patent US20070009455A1 (priority 2003, published 2007)
In brackets after ≈: the same amount, converted by molar mass.

Assays:
Human skin melanocytes = experiment: Whitening activity test: melanin production in skin melanocytes; assay type: cell-based; conditions: for Melanin production inhibitory activity (%): concentration of each test sample: 0.02%
Method: The whitening activity test based on […] of skin melanocytes was performed as the following method: • 1. Human skin melanocytes in MGM (Melanocyte Growth Media, Clonetics) media were incubated at a 5% CO2 incubator at 37° C. • 2. A predetermined number of cells (2×10^6) were cultured in75T culture flasks. When cell confluence was identified, test samples of a predetermined concentration were loaded in the cell cultures and incubated for 2-3 days. • 3. The cultures were removed, washed with phosphate buffered saline (PBS), and treated with trypsin solution, to harvest cells. • 4. The harvested cells were centrifuged to obtain cell pellets.
The colors of the cell pellets were observed. The cell pellets were dissolved in 1N NaOH and the absorbance was measured at 475 nm. • 5. The concentration of melanin was calculated by using absorbance values obtained from melanin standard and then converted to the concentration of melanin/the total protein concentration of melanocytes. […]=[(A−B)/A]×100
A: concentration of melain/concentration of protein in control
(control: melanocytes normally grown in a culture medium containing no test samples)
B: concentration of melain/concentration of protein in each test sample
To evaluate whitening activity, inhibitory activity of the compositions of Examples 7 and Comparative Examples 6-8 against melanin production in melanocytes of healthy persons were measured and the results are summarized in Table 13 below.

tyrosinase = experiment: Tyrosinase inhibitory activity test; assay type: biochemical
Method: Tyrosine used as a substrate in main processes of melanin biosynthesis, mushroom tyrosinase, or tyrosinase fragments separated from melanocytes was added to test samples and incubated for a predetermined time. The absorbance of dopachrome that was a reaction product was measured at an absorption wavelength to evaluate the whitening effects of the test samples. Tyrosinase inhibitory activity (%)=100−((ODexp−ODcon)/ODstd×100)
ODexp: Absorbance of test sample containing tyrosinase
ODcon: Absorbance of test sample containing no tyrosinase
ODstd: Absorbance of standard sample containing tyrosinase

[1] = Free radical scavenging activity test (DPPH)
Method: When methanol solutions of test samples were converted to clear solutions due to scavenging of relatively stable deep blue-colored DPPH(1,1-diphenyl-2-hydrazyl) radicals, the degree of reduction of the absorbance of the methanol solutions was measured at 516 nm. Free radical scavenging activity (%)=100−( (ODexp−ODcon)/ODstd×100)
ODexp: Absorbance of test sample containing DPPH
ODcon: Absorbance of test sample containing no DPPH
ODstd: Absorbance of standard sample containing DPPH

Row | SMILES | Melanin production inhibitory activity (%) (Human skin melanocytes) | Tyrosinase inhibitory activity (in words) (tyrosinase) | IC50: 50% tyrosinase activity inhibition concentration (tyrosinase) [µg/mL] | Inhibitory activity of melanin production (in words) (Human skin melanocytes; 0.02%) | Free radical scavenging (in words) [1]
1 | OC[C@H]1O[C@@H](Oc2ccc(O)cc2)[C@H](O)[C@@H](O)[C@@H]1O [Albutin] | 2.00 | – | – | – | –
2 | O=c1cc(CO)occ1O [Cojic acid] | 22.62 | excellent tyrosinase inhibitory activity | – | – | –
3 | Oc1ccc(/C=C/c2cc(O)cc(O)c2)cc1 [Resveratrol] | 53.17 | excellent tyrosinase inhibitory activity | 2 (≈ 8.76 µM) | excellent inhibitory activity of melanin production | –
4 | O=C1O[C@H]([C@@H](O)CO)C(O)=C1O [Vitamin C] | 19.72 | – | – | – | effective free radical scavengers
